{
  "source": "paper PMC8813873",
  "about": "“The HGR motif is the antiangiogenic determinant of vasoinhibin: implications for a therapeutic orally active oligopeptide” (Angiogenesis, 2021)",
  "key": {"pepsin": {"biological_target": "pepsin (Sus scrofa, UniProt P00791)", "sequence (P00791 60-385)": "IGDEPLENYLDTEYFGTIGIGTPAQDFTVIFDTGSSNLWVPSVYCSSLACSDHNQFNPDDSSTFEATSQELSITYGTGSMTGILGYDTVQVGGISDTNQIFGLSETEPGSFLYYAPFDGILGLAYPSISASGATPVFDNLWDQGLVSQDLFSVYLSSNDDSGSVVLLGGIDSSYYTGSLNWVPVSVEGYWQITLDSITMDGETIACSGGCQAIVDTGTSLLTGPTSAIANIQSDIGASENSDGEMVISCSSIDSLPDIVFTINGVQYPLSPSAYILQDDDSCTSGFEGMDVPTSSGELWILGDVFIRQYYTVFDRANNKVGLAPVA", "test": "Pepsin digestion, residual antiproliferative activity", "settings": "4 μM, 1:20 protease to substrate molar ratio, 40 mM HCl, 37 °C, 5 h; read-out inhibition of VEGF + bFGF-induced HUVEC proliferation at 10 nM, n = 9"}, "HUVEC [1]": {"tested_on": "HUVEC", "settings": "for Span: span of fitted dose-response curve, VEGF + bFGF-induced HUVEC proliferation relative to lowest and highest dose of CRIVi45-51", "protocol": "HUVEC were seeded at 14,000 cells cm^−2 in a 96-well plate and, after 24 h, starved with 0.5% FBS for 12 h. The medium was refreshed with 20% FBS-F12K and incubated with 100 μg mL^−1 heparin together with 25 ng mL^−1 VEGF and 20 ng mL^−1 bFGF for 24 h in combination with a single dose (100 nM) or different concentrations of PRL, vasoinhibin, or synthetic oligopeptides. DNA synthesis was quantified by the DNA incorporation of the thymidine analog 5-ethynyl-2’-deoxyuridine (EdU, Sigma) labeled by the click reaction with fluorescent Azide Fluor 545 (Sigma-Aldrich) as reported.\nEndothelial cell proliferation. BUVEC-E6E7 cells seeded at 14,000 cells cm^-2 in a 96-well plate were starved with 0.1% FBS for 24 h and treated or not with VEGF (50 ng mL^-1) in starvation medium with or without different concentrations of five peptides synthesized along the 45 to 58 residue sequence of human PRL or with recombinant vasoinhibin of 123 amino acids (positive control). HUVEC cells were seeded at 14,000 cells cm^-2 in a 96-well plate for 24 h and starved with 0.5% FBS for 12 h. Medium was then replaced by 20% FBS-F12K and 100 μg mL^-1 heparin containing or not VEGF (25 ng mL^-1), bFGF (20 ng mL^-1), IL-1b (10 ng mL^-1), or BK (10 μM) or a combination of 25 ng mL^-1 of VEGF and 20 ng mL^-1 of bFGF for 24 h in the presence or absence of a single dose (100 nM) or different doses of PRL (negative control), recombinant vasoinhibin, Vi45-51, synthetic peptides having the same residue composition as the 45-51 segment but in scrambled order (negative control), Vi45-51 subjected to alanine scanning mutagenesis, a tripeptide comprising residues 46 to 48 of vasoinhibin (Vi46-48), a Vi45-51 where G47 was deleted (des-G^47), a conserved version of the Vi45-51 (cVi45-51) and the QGR tripeptide, heptapeptides comprising residues 39 to 45 of growth hormone (GH39-45) or placental lactogen (PL39-45), tripeptides EQK and QKY, the dipeptide QK (Table S2), alanine mutants of the vasoinhibin with 123 residues (Vi-H46A, Vi-R48A, Vi-H46A/R48A), alanine mutants of PRL (PRL-E161A, PRL-E162A, PRL-E161A/E162A), CRIVi45-51, antiangiogenic proteins (endostatin, angiostatin), antiangiogenic oligopeptides (anginex, cilengitide), or antiangiogenic tyrosine-kinase inhibitors (pazopanib, sunitinib, sorafenib). DNA synthesis was quantified by the DNA incorporation of the thymidine analogue 5-ethynyl-2’-deoxyuridine (EdU, Sigma) added at the time of treatments and labelled by the click reaction with fluorescent Azide Fluor 545 (Sigma-Aldrich) as reported. Images were obtained in a fluorescent inverted microscope (Olympus IX51, Japan) and quantified using the CellProfiler software. The number of EdU-positive cells over total DNA (Hoechst)-stained cells was expressed as percentage proliferation. B16-F10 cells and HUVEC were seeded at 12,600 cells cm^-2 and 7,400 cells cm^-2, respectively, in a 24-well plate and incubated for different times in complete medium in the absence or presence of 100 nM CRIVi45-51 added every 24 h. Cells were trypsinized and counted."}, "B16-F10 cells": {"tested_on": "B16-F10 cells", "test": "B16-F10 cell growth in vitro (cell counting)", "assay_type": "cell-based, mouse", "settings": "100 nM added every 24 h, cell density over time, n = 9", "protocol": "(§1) Endothelial cell proliferation. BUVEC-E6E7 cells seeded at 14,000 cells cm^-2 in a 96-well plate were starved with 0.1% FBS for 24 h and treated or not with VEGF (50 ng mL^-1) in starvation medium with or without different concentrations of five peptides synthesized along the 45 to 58 residue sequence of human PRL or with recombinant vasoinhibin of 123 amino acids (positive control). HUVEC cells were seeded at 14,000 cells cm^-2 in a 96-well plate for 24 h and starved with 0.5% FBS for 12 h. […] DNA synthesis was quantified by the DNA incorporation of the thymidine analogue 5-ethynyl-2’-deoxyuridine (EdU, Sigma) added at the time of treatments and labelled by the click reaction with fluorescent Azide Fluor 545 (Sigma-Aldrich) as reported. Images were obtained in a fluorescent inverted microscope (Olympus IX51, Japan) and quantified using the CellProfiler software. The number of EdU-positive cells over total DNA (Hoechst)-stained cells was expressed as percentage proliferation. […] Cells were trypsinized and counted."}, "HUVEC [2]": {"tested_on": "HUVEC", "test": "HUVEC cell density over time (cell counting)", "assay_type": "cell-based, human", "settings": "100 nM added every 24 h, complete medium, n = 9", "protocol": "as §1"}, "B16-F10 melanoma tumors": {"tested_on": "B16-F10 melanoma tumors", "test": "B16-F10 melanoma tumor model", "assay_type": "in vivo", "settings": "C57BL6 mice", "protocol": "The mouse model of primary tumor development based on the use of B16-F10 melanoma cells was used as previously reported. Briefly, anesthetized female C57BL6 mice (8–12 weeks-old) were inoculated into their right flank with 10^5 B16-F10 cells. Five days after tumor cell inoculation, mice were treated daily with vehicle (NS) or CRIVi45–51 injected into the lateral tail vein or via intragastric gavage for the 8 d following tumor cell injection. Animals were then euthanized by cervical dislocation and the tumors weighted and processed to evaluate blood vessels by immunofluorescence or RT-qPCR.\nTumor model. Female C57BL6 mice (8-12 weeks-old) under 2.5% isoflurane anesthesia (SomnoSuite system, Kent Scientific, Torrington, CT) were inoculated into their right flank with 10^5 B16-F10 cells in 50 μL PBS. Tumor length and width were measured daily, and volume was estimated by the formula: Volume = (length x width^2) x 0.5. Five days after tumor cell inoculation, mice were injected daily into the lateral tail vein with vehicle (normal saline) or 0.1 or 1.0 mg kg^-1 CRIVi45-51, and tumor volumes were assessed daily for the following 8 d. In other experiments, 1.0 mg kg^-1 CRIVi45-51 or vehicle was delivered daily intragastrically through a 20G x 1.5’’ curved metal gavage canula (Cadence Science, Staunton, VA) for the 8 d following tumor cell injection. Animals were then euthanized by cervical dislocation and the tumors processed or frozen to evaluate blood vessels by immunofluorescence or RT-qPCR, respectively. […] Tumor sections were cover-slipped with Vectashield H-1000 (Vector Laboratories) and digitalized at 20X and 40X magnification under a fluorescence microscope (Olympus BX60). The number of vessels per tumor area measured vascular density. CD-31 and VE-Cad mRNA levels were quantified by RT-qPCR following the method already described in the retinal angiogenesis assay section."}, "[3]": {"test": "Heat treatment, residual antiproliferative activity", "assay_type": "physicochemical", "settings": "2 μM solution, 97 °C, 15 min; read-out inhibition of VEGF + bFGF-induced HUVEC proliferation at 10 nM, n = 9"}, "[4]": {"settings": "VEGF 25 ng/mL + bFGF 20 ng/mL-induced HUVEC proliferation, 24 h, EdU incorporation, non-linear best fit, n = 9"}},
  "note": "Read-outs that look alike come from different tables or passages of the source. Square brackets hold non-standard residues; d marks the D form. Ends that are not written are not given here. Peptide text beside a SMILES is read from it.",
  "data": [
    {"molecule": "CC[C@@H](C)[C@H]1NC(=O)[C@@H]([C@H](C)O)NC(=O)[C@@H](Cc2c[nH]cn2)NC(=O)CNC(=O)[C@@H](CCCNC(=N)N)NC(=O)CNC(=O)[C@@H](Cc2ccccc2)NC1=O", "note": "[CRIVi45–51, cyclic-retro-inverse-vasoinhibin-(45–51)-peptide] (cyclo([dI][dF]G[dR]G[dH][dT]))", "values": [
      {"measurement": "resistance to pepsin degradation", "setting": "pepsin", "value": "resistant"},
      {"measurement": "fold lower IC50 than other antiangiogenic proteins (endostatin and angiostatin) and peptides (anginex and cilengitide)", "setting": "HUVEC [1]; ratio of IC50 values, VEGF + bFGF-induced HUVEC proliferation", "value": "2.7- to 214 fold"},
      {"measurement": "Span", "setting": "HUVEC [1]; non-linear best fit, n = 9", "value": 86.86, "unit": "%"},
      {"measurement": "growth of melanoma cells in vitro", "setting": "B16-F10 cells", "value": "did not inhibit"},
      {"measurement": "HUVEC cell density over time", "setting": "HUVEC [2]", "value": "reduces proliferation"},
      {"measurement": "tumor growth, oral administration", "setting": "B16-F10 melanoma tumors; B16-F10, 1.0 mg/kg daily intragastric gavage, 8 d, n = 9", "value": "decreased tumor growth with similar efficacy to intravenous delivery"},
      {"measurement": "tumor growth, intravenous", "setting": "B16-F10 melanoma tumors; B16-F10, daily i.v. 0.1 or 1.0 mg/kg for 8 d from day 5, n = 9", "value": "reduced tumor growth in a dose-related manner"},
      {"measurement": "tumor vascular density and expression of CD31", "setting": "B16-F10 melanoma tumors; B16-F10 tumors, daily i.v., n = 9", "value": "reduce"},
      {"measurement": "activity after heat inactivation", "setting": "[3]", "value": "retained full activity"}
    ]},
    {"molecule": "Cc1ccc(Nc2nccc(N(C)c3ccc4c(C)n(C)nc4c3)n2)cc1S(N)(=O)=O", "note": "[Pazopanib, reference compound]", "values": [
      {"measurement": "Span", "setting": "HUVEC [1]; non-linear best fit, n = 9", "value": 83.73, "unit": "%"}
    ]},
    {"molecule": "CNC(=O)c1cc(Oc2ccc(NC(=O)Nc3ccc(Cl)c(C(F)(F)F)c3)cc2)ccn1", "note": "[Sorafenib, reference compound]", "values": [
      {"measurement": "Span", "setting": "HUVEC [1]; non-linear best fit, n = 9", "value": 106.00, "unit": "%"}
    ]},
    {"molecule": "CCN(CC)CCNC(=O)c1c(C)[nH]c(/C=C2\\C(=O)Nc3ccc(F)cc32)c1C", "note": "[Sunitinib, reference compound]", "values": [
      {"measurement": "Span", "setting": "HUVEC [1]; non-linear best fit, n = 9", "value": 93.64, "unit": "%"}
    ]},
    {"molecule": "ANIKLSVQMKLFKRHLKWKIIVKLNDGRELSLD [Anginex, reference compound]", "values": [
      {"measurement": "Span", "setting": "HUVEC [1]; non-linear best fit, n = 9", "value": 73.13, "unit": "%"}
    ]},
    {"molecule": "Ac-THGRGFI-NH2 [Vi45–51, vasoinhibin-(45-51)-peptide]", "values": [
      {"measurement": "IC50", "setting": "HUVEC [1]; 24 h", "value": "~0.15", "unit": "nM"}
    ]},
    {"molecule": "Angiostatin", "values": [
      {"measurement": "IC50", "setting": "HUVEC [1]; [4]", "value": 0.388, "unit": "nM"},
      {"measurement": "Span", "setting": "HUVEC [1]; non-linear best fit, n = 9", "value": 68.47, "unit": "%"}
    ]},
    {"molecule": "Endostatin", "values": [
      {"measurement": "IC50", "setting": "HUVEC [1]; [4]", "value": 31.2, "unit": "nM"},
      {"measurement": "Span", "setting": "HUVEC [1]; non-linear best fit, n = 9", "value": 49.98, "unit": "%"}
    ]},
    {"molecule": "PRL: Recombinant human prolactin (protein, UniProt P01236 29-227, looked up) Prolactin: LPICPGGAARCQVTLRDLFDRAVVLSHYIHNLSSEMFSEFDKRYTHGRGFITKAINSCHTSSLATPEDKEQAQQMNQKDFLSLIVSILRSWNEPLYHLVTEVRGMQEAPEAILSKAVEIEEQTKRLLEGMELIVSQVHPETKENEIYPVWSGLPSLQMADEESRLSAYYNLLHCLRRDSHKIDNYLKLLKCRIIHNNNC", "values": [
      {"measurement": "dose-response inhibition of VEGF + bFGF-induced HUVEC proliferation (result in words)", "setting": "HUVEC [1]; VEGF 25 ng/mL + bFGF 20 ng/mL, 24 h, EdU, n = 9", "value": "not antiangiogenic"}
    ]}
  ]
}
